# Experimental data from ChEMBL document CHEMBL1201862, “PubChem BioAssay data set” (2004).
#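 Following 48 hours of exposure in 96-well plates, responses at five concentrations were used to interpolate endpoints linearly. The concentration for 50% growth inhibition is given as GI50.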 Activity calls are given as the source filed them. Cut-off read from the data, not from the text of the source: active = GI50 up to about 1.1 µM and inactive = higher.
# Experiments:
# Test in all cases: DTP human tumour cell line panel, 48 h
# SK-MEL-2 = tested on: SK-MEL-2
# KM12 = tested on: KM12
# MDA-MB-435 = tested on: MDA-MB-435
# NCI/ADR-RES = tested on: NCI/ADR-RES
# K562 = tested on: K562
# EKVX = tested on: EKVX
# CCRF-CEM = tested on: CCRF-CEM
# BT-549 = tested on: BT-549
# SK-MEL-28 = tested on: SK-MEL-28
# SR = tested on: SR
# OVCAR-5 = tested on: OVCAR-5
# PC-3 = tested on: PC-3
# RXF 393 = tested on: RXF 393
# CAKI-1 = tested on: CAKI-1
# OVCAR-4 = tested on: OVCAR-4
# HL-60 = tested on: HL-60
# Hs-578T = tested on: Hs-578T
# NCI-H522 = tested on: NCI-H522
# OVCAR-8 = tested on: OVCAR-8
# MDA-MB-231 = tested on: MDA-MB-231
# 786-0 = tested on: 786-0
# A498 = tested on: A498
# ACHN = tested on: ACHN
# Malme-3M = tested on: Malme-3M
# OVCAR-3 = tested on: OVCAR-3
# HOP-62 = tested on: HOP-62
# M14 = tested on: M14
# TK-10 = tested on: TK-10
# IGROV-1 = tested on: IGROV-1
# NCI-H23 = tested on: NCI-H23
# MOLT-4 = tested on: MOLT-4
# LOX IMVI = tested on: LOX IMVI
# SW-620 = tested on: SW-620
# HCT-116 = tested on: HCT-116
# HCC 2998 = tested on: HCC 2998
# MDA-N = tested on: MDA-N
# SF-295 = tested on: SF-295
# SNB-19 = tested on: SNB-19
# SF-268 = tested on: SF-268
# UACC-257 = tested on: UACC-257
# HT-29 = tested on: HT-29
# A549 = tested on: A549
# U-251 = tested on: U-251
# HOP-92 = tested on: HOP-92
# UACC-62 = tested on: UACC-62
# NCI-H460 = tested on: NCI-H460
# SK-OV-3 = tested on: SK-OV-3
# T47D = tested on: T47D
# COLO 205 = tested on: COLO 205
# SN12C = tested on: SN12C
# MCF7 = tested on: MCF7
# NCI-H226 = tested on: NCI-H226
# HCT-15 = tested on: HCT-15
# SF-539 = tested on: SF-539
# SK-MEL-5 = tested on: SK-MEL-5
# DU-145 = tested on: DU-145
# UO-31 = tested on: UO-31
# RPMI-8226 = tested on: RPMI-8226
# SNB-75 = tested on: SNB-75
compound,measurement,setting,value
Cc1ccccc1C(=N)c1ccccc1Cc1cccc2ccccc12,GI50,SK-MEL-2,16.9 µM (inactive)
same,GI50,KM12,16.6 µM (inactive)
same,GI50,MDA-MB-435,21.9 µM (inactive)
same,GI50,NCI/ADR-RES,25.7 µM (inactive)
same,GI50,K562,18.2 µM (inactive)
same,GI50,EKVX,29.4 µM (inactive)
same,GI50,CCRF-CEM,15.4 µM (inactive)
same,GI50,BT-549,33.2 µM (inactive)
same,GI50,SK-MEL-28,20.7 µM (inactive)
same,GI50,SR,15.9 µM (inactive)
same,GI50,OVCAR-5,37.5 µM (inactive)
same,GI50,PC-3,40.6 µM (inactive)
same,GI50,RXF 393,5.93 µM (inactive)
same,GI50,CAKI-1,31 µM (inactive)
same,GI50,OVCAR-4,28.4 µM (inactive)
same,GI50,HL-60,18.1 µM (inactive)
same,GI50,Hs-578T,4.63 µM (inactive)
same,GI50,NCI-H522,13.1 µM (inactive)
same,GI50,OVCAR-8,32 µM (inactive)
same,GI50,MDA-MB-231,36.4 µM (inactive)
same,GI50,786-0,19.4 µM (inactive)
same,GI50,A498,30.8 µM (inactive)
same,GI50,ACHN,30.4 µM (inactive)
same,GI50,Malme-3M,11.5 µM (inactive)
same,GI50,OVCAR-3,13.1 µM (inactive)
same,GI50,HOP-62,19 µM (inactive)
same,GI50,M14,34.2 µM (inactive)
same,GI50,TK-10,59.3 µM (inactive)
same,GI50,IGROV-1,28.9 µM (inactive)
same,GI50,NCI-H23,24.5 µM (inactive)
same,GI50,MOLT-4,14 µM (inactive)
same,GI50,LOX IMVI,18.1 µM (inactive)
same,GI50,SW-620,21.2 µM (inactive)
same,GI50,HCT-116,11.9 µM (inactive)
same,GI50,HCC 2998,17.5 µM (inactive)
same,GI50,MDA-N,22.2 µM (inactive)
same,GI50,SF-295,19.2 µM (inactive)
same,GI50,SNB-19,56.1 µM (inactive)
same,GI50,SF-268,20.6 µM (inactive)
same,GI50,UACC-257,25.6 µM (inactive)
same,GI50,HT-29,16.1 µM (inactive)
same,GI50,A549,25.1 µM (inactive)
same,GI50,U-251,18.2 µM (inactive)
same,GI50,HOP-92,17.1 µM (inactive)
same,GI50,UACC-62,15.1 µM (inactive)
same,GI50,NCI-H460,15.5 µM (inactive)
same,GI50,SK-OV-3,26.3 µM (inactive)
same,GI50,T47D,14.1 µM (inactive)
same,GI50,COLO 205,27.6 µM (inactive)
same,GI50,SN12C,19.2 µM (inactive)
same,GI50,MCF7,19.1 µM (inactive)
same,GI50,NCI-H226,17.1 µM (inactive)
same,GI50,HCT-15,18.7 µM
same,GI50,SF-539,17.6 µM (inactive)
same,GI50,SK-MEL-5,17.9 µM (inactive)
same,GI50,DU-145,21.8 µM (inactive)
same,GI50,UO-31,38.5 µM (inactive)
same,GI50,RPMI-8226,7.43 µM (inactive)
C=C[C@H]1CN2CCc3c([nH]c4c([C@H]5CCCN5C)c(O)ccc34)[C@@H]2C[C@@H]1C[C@H]1c2[nH]c3ccccc3c2CCN1C [STRYCHNOPENTAMINE],GI50,SK-MEL-2,1.9 µM (inactive)
same,GI50,KM12,1.36 µM (inactive)
same,GI50,MDA-MB-435,1.43 µM (inactive)
same,GI50,NCI/ADR-RES,1.74 µM (inactive)
same,GI50,K562,0.422 µM (active)
same,GI50,EKVX,1.75 µM (inactive)
same,GI50,CCRF-CEM,0.719 µM (active)
same,GI50,BT-549,1.94 µM (inactive)
same,GI50,SK-MEL-28,1.76 µM (inactive)
same,GI50,SR,0.425 µM (active)
same,GI50,OVCAR-5,1.72 µM (inactive)
same,GI50,PC-3,1.57 µM (inactive)
same,GI50,RXF 393,1.04 µM (active)
same,GI50,CAKI-1,1.72 µM (inactive)
same,GI50,OVCAR-4,1.74 µM (inactive)
same,GI50,HL-60,0.267 µM (active)
same,GI50,Hs-578T,1.78 µM (inactive)
same,GI50,NCI-H522,1.79 µM (inactive)
same,GI50,OVCAR-8,1.23 µM (inactive)
same,GI50,MDA-MB-231,1.81 µM (inactive)
same,GI50,786-0,1.43 µM (inactive)
same,GI50,A498,1.63 µM (inactive)
same,GI50,ACHN,1.78 µM (inactive)
same,GI50,Malme-3M,1.76 µM (inactive)
same,GI50,OVCAR-3,1.58 µM (inactive)
same,GI50,HOP-62,1.55 µM (inactive)
same,GI50,M14,1.47 µM (inactive)
same,GI50,TK-10,1.83 µM (inactive)
same,GI50,IGROV-1,1.59 µM (inactive)
same,GI50,NCI-H23,1.85 µM (inactive)
same,GI50,LOX IMVI,1.15 µM (inactive)
same,GI50,SW-620,1.24 µM (inactive)
same,GI50,HCT-116,1.33 µM (inactive)
same,GI50,HCC 2998,0.388 µM (active)
same,GI50,MDA-N,1.35 µM (inactive)
same,GI50,SF-295,1.73 µM (inactive)
same,GI50,SNB-19,1.95 µM (inactive)
same,GI50,SF-268,1.58 µM (inactive)
same,GI50,UACC-257,1.83 µM (inactive)
same,GI50,HT-29,1.3 µM (inactive)
same,GI50,A549,1.55 µM (inactive)
same,GI50,U-251,1.43 µM (inactive)
same,GI50,HOP-92,1.58 µM (inactive)
same,GI50,UACC-62,1.77 µM (inactive)
same,GI50,NCI-H460,1.48 µM (inactive)
same,GI50,SK-OV-3,1.77 µM (inactive)
same,GI50,SNB-75,1.14 µM (inactive)
same,GI50,T47D,1.8 µM (inactive)
same,GI50,COLO 205,1.5 µM (inactive)
same,GI50,SN12C,1.65 µM (inactive)
same,GI50,MCF7,0.776 µM (active)
same,GI50,HCT-15,0.899 µM
same,GI50,DU-145,1.63 µM (inactive)
same,GI50,UO-31,1.71 µM (inactive)
same,GI50,RPMI-8226,0.653 µM (active)
